According to patent US11591288B2, “Compositions and methods for treating atherosclerotic cardiovascular disease” (GAVISH-GALILEE BIO APPLICATIONS LTD., priority 2017, dated 2023):

Tests used:
[1] = tested on: rePON1; experiment: rePON1 lactonase activity (dihydrocoumarin assay) after incubation with lyso-DGTS; format: biochemical; conditions: for rePON1 lactonase activity: 2 h incubation, 37° C., 3.00 units without lyso-DGTS
Experimental: To 200 μl of rePON1 solution (5 μg/ml) in Tris-HCl buffer pH=8.4 was added 1 μl of lyso-DGTS dissolved in dimethyl sulfoxide (DMSO) to a final concentration of 1, 5, 10, 50, and 100 μg/ml. 1 μl DMSO was added to the control rePON1 solution. The mixtures were incubated at 37° C. for 2, 4, 24 or 48 h.
10 μl from each solution were taken to a UV 96-well microplate containing 90 μl Tris-HCL buffer pH=8.4 with 1 mM CaCl2 (activity buffer) in each well. Then 100 μl dihydrocoumarin, 2 mM in the activity buffer was added (prepared from a stock of 100 mM dihydrocoumarin in DMSO). Dihydrocoumarine hydrolysis rate was measured at 270 nm, once in 25 seconds for 15 minutes, using SpectraMax M2 Reader. Non-enzymatic hydrolysis of dihydrocoumarin was subtracted from the total rate of hydrolysis. One unit of lactonase activity was equal to the hydrolysis of 1 μmol of dihydrocoumarin/min.
The effect of lyso-DGTS on lactonase and arylesterase activities of rePON1 was examined. rePON1 (5 μg/ml in Tris buffer pH=8.4) was incubated with different concentrations of lyso-DGTS for 2, 4, 24, and 48 h at 37° C., and its lactonase and aryesterase activities were measured using dihydrocoumarin and phenyl acetate assays, respectively.

[2] = tested on: HDL isolated from Balb/c mice; experiment: Pro-/anti-inflammatory properties of HDL isolated from HFD fed Balb/c mice, cell free assay; format: in vivo; conditions: HDL from HFD mice given lyso-DGTS 1.43 mg/ml, 3.5 μl a day, 28 days; fluorescence without HDL = 1.0; p<0.05
Experimental: Balb/c mice fed with normal rodent diet (the “non” group; n=11) or HFD received treatment administered via subcutaneously implanted osmotic mini-pumps: 1) vehicle group injected with DDW+2% Tween 80 (n=9); 2) lyso-DGTS group injected with lyso-DGTS (1.43 mg/ml in DDW+2% Tween 80; n=1). At the end of the protocol, serum was obtained, HDL was isolated, and its pro-inflammatory/anti-inflammatory properties were determined using cell free assay (CFA). Fluorescence in the absence of HDL was normalized to 1.0. Values>1.0, after addition of the tested HDL, indicated pro-inflammatory activity; and values<1.0 indicated anti-inflammatory activity. (*p<0.05).
In order to examine the effect of lyso-DGTS on HDL-anti-inflammatory effects in-vivo, 3.5 μl lyso-DGTS a day were administered for 28 days, via a subcutaneously implanted osmotic mini-pump, to HFD fed mice. As described in Example 12, the mice were divided into three groups: 1) mice fed with regular diet for 12 weeks (the “non” group; […]); 2) mice fed with HFD for 12 weeks and injected with lyso-DGTS (1.43 mg/ml in DDW+2% Tween) from week 9 (the lyso-DGTS group; n=1); and 3) mice fed with HFD for 12 weeks and injected with DDW+2% Tween (the vehicle group; n=9).

[3] = tested on: HDL; experiment: HDL-lyso-DGTS interaction, Trp fluorescence quenching; format: binding, human
Experimental: FIGS. 10A-10B show tryptophan fluorescence spectra of HDL (0.03 mg/ml) incubated with/without lyso-DGTS at various concentrations (1, 5, 10, 25, 50, 75, and 100 μg/ml) in black 96-well plates for 4 h at 37° C. (10A) or 25° C. (10B). The fluorescence was measured at excitation/emission 290/320-340 nm. The ability of lyso-DGTS to elevate HDL activity correlates with its binding affinity to HDL. Each experiment repeated separately at least three times.
HDL and LDL were isolated from human plasma samples by discontinuous density gradient ultracentrifugation and dialyzed against saline containing sodium ethylenediaminetetraacetic acid (EDTA; 1 mmol/L) to protect the lipoproteins against oxidation. Before generating the experiments, LDL and HDL were dialyzed twice, for 1 h each time, and once more overnight against PBS at 4° C. to remove EDTA.
In order to test whether the protective effect of lyso-DGTS on HDL occurs via specific interaction between lyso-DGTS and the lipoprotein, the HDL-lyso-DGTS interaction was investigated by the Trp-fluorescence-quenching method. […] (FIG. 10A) and 25° C. (FIG. 10B) in the 300-450 nm range with an excitation wavelength of 290 nm. Lyso-DGTS quenched HDL fluorescence in a dose-dependent manner at both temperatures.
Quenching pathways can be described by the Stem-Volmer equation (eq. 1 above). The Stern-Volmer curve was linear at the tested concentration of lyso-DGTS at both temperatures (with R>0.99 and p<0.0001). The Ksv values were (5.59±0.42)×10^3 M^−1 at 37° C. (FIG. 11A) and (4.83±0.59)×10^3 M^−1 at 25° C.
The binding constant and binding sites were calculated as shown for rePON1, using eq. 2 above. […] (FIG. 11D). The values obtained for n were not affected by temperature and were equal to 1 (Table 5). The thermodynamic parameters: enthalpy (ΔH), entropy (ΔS), and free energy (ΔG) were calculated to characterize the HDL-lyso-DGTS interaction type.

[4] = molecular target: T1, human serum PON1 (Homo sapiens, UniProt P27169); experiment: Human serum PON1 lactonase activity (dihydrocoumarin assay); format: biochemical; conditions: 4 h, 37° C., 1.8 units without lyso-DGTS
T1 construct: tissue Industries biologic (Bet-Haemk, Israel); host or cells: human serum
Experimental: 200 μl of human serum diluted by 20 with phosphate-buffered saline (PBS) (PH=7.6) was incubated with lyso-DGTS at various concentrations (0, 1, 5, 10 and 50 μg/ml) for 4 h at 37° C. Then, 10 μl was taken to measure lactonase activity using the dihydrocoumarine assay.
The effect of lyso-DGTS on lactonase activity of human serum PON1 was examined. Human serum was diluted by 20 with PBS buffer and incubated with and without lyso-DGTS at concentrations of 1, 5, 10, and 50 μg/ml for 4 h at 37° C. Lactonase activity of the enzyme was measured using dihydrocoumarin assay. As shown in Example 1, lyso-DGTS increased human serum lactonase activity in a dose dependent manner up to 10 μg/ml, from 1.8 units without lyso-DGTS to 2.16, 2.82, 3.01, and 2.80 units at 1, 5, 10 and 50 μg/ml lyso-DGTS, respectively. The change at 1 μg/ml of lyso-DGTS was not statistically significant (FIG. 2).

T1 sequence (P27169 whole entry): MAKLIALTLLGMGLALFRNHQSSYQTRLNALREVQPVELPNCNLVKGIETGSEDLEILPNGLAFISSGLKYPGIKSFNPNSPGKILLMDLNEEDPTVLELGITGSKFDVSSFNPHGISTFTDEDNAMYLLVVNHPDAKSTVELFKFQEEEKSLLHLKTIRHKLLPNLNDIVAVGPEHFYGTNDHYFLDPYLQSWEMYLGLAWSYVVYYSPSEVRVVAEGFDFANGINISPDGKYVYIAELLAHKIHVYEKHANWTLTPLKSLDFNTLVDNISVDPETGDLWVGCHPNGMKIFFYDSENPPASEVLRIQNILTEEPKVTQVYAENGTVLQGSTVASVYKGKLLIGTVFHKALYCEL

CC/C=C\C/C=C\C/C=C\C/C=C\C/C=C\CCCC(=O)OCC(O)COCCC(C(=O)[O-])[N+](C)(C)C (centres unmarked) [lyso-DGTS, lyso-diacylglyceryltrimethylhornmoserine]
rePON1 lactonase activity ([1]; 1 μg/ml lyso-DGTS): 4.05 units | rePON1 lactonase activity preserved after incubation for 48 h ([1]; 1 μg/ml lyso-DGTS): 9% | rePON1 lactonase activity ([1]; 5 μg/ml lyso-DGTS): 5.73 units | rePON1 lactonase activity preserved after incubation for 48 h ([1]; 5 μg/ml lyso-DGTS): 33% | rePON1 lactonase activity ([1]; 10 μg/ml lyso-DGTS): 8.10 units | rePON1 lactonase activity preserved after incubation for 48 h ([1]; 10 μg/ml lyso-DGTS): 49% | rePON1 lactonase activity ([1]; 50 μg/ml lyso-DGTS): 11.61 units | rePON1 lactonase activity preserved after incubation for 48 h ([1]; 50 μg/ml lyso-DGTS): 69% | rePON1 lactonase activity ([1]; 100 μg/ml lyso-DGTS): 12.7 units | rePON1 lactonase activity preserved after incubation for 48 h ([1]; 100 μg/ml lyso-DGTS): 66% | time for which rePON1 lactonase activity is stabilized and preserved ([1]; in buffer solution, abolished after 48 h without lyso-DGTS): at least 48 h | HDL inflammatory value [2]: < 1 | Stern-Volmer quenching constant Ksv, HDL ([3]; 25° C.): (4.83±0.59)×10^3 M^−1 | Stern-Volmer quenching constant Ksv, HDL ([3]; 37° C.): (5.59±0.42)×10^3 M^−1 | Binding constant Ka, lyso-DGTS-HDL ([3]; 298 K (25° C.)): 3780 M⁻¹ | Binding constant Ka, lyso-DGTS-HDL ([3]; 310 K (37° C.)): 21650 M⁻¹ | human serum PON1 lactonase activity ([4]; 1 μg/ml lyso-DGTS, change not statistically significant): 2.16 units | human serum PON1 lactonase activity ([4]; 5 μg/ml lyso-DGTS): 2.82 units | human serum PON1 lactonase activity ([4]; 10 μg/ml lyso-DGTS): 3.01 units | human serum PON1 lactonase activity ([4]; 50 μg/ml lyso-DGTS): 2.80 units
